Results reported in patent EP2465928A1, “Treatment of Th17-mediated diseases” (Academisch Medisch Centrum bij de Universiteit van Amsterdam, priority 2010, dated 2012).

Columns and labels:
Format in all cases: cell-based, human
Malt1 [1] = assay: NF-κB DNA binding in nuclear extracts of stimulated DCs (TransAM NF-κB family kit); conditions: curdlan-stimulated DCs; 75 µM z-VRPR-FMK, 2 h pre-incubation
Experimental: (§1) Cells, stimulation, inhibition and RNA interference. This study was performed in accordance with the ethical guidelines of the Academic Medical Center. Immature DCs (iDC, day 6 and 7) were generated as described previously. In short, human blood monocytes were isolated from buffy coats by a Ficoll and a Percoll gradient and or CD14 selection by magnetic beads. Monocytes were differentiated into immature DCs in the presence of IL-4 and GM-CSFAt day 6 the phenotype of the cultured DCs was confirmed by flow cytometric analysis. 100.000 DCs were stimulated with 10 µg/ml curdlan (Sigma), heat-killed Candida spp. (multiplicity of infection (MOI) 10) and 10 ng/ml LPS from Salmonella typhosa (Sigma) in 100-150 µl medium. Dectin-2 triggering was induced by pre-incubating DCs for 2 h at room temperature with 5 µg/ml anti-dectin-2 (MAB3114; R&D Systems), followed by cross-linking on goat-anti-mouse IgG (115-006-0710; Jackson)-coated culture plates. Cells were pre-incubated with blocking antibodies or inhibitor for 2 h with 20 µg/ml anti-dectin-1 (MAB1859; R&D Systems), 20 µg/ml anti-dectin-2 (MAB3114; R&D Systems) or 75 µM z-VRPR-FMK (Malt1 inhibitor [22]; Alexis). […]
NF-κB DNA binding. Nuclear extracts of DCs were prepared using NucBuster protein extraction kit (Novagen) and NF-κB DNA binding determined using TransAM NF-κB family kit (Active Motif).

Malt1 [2] = assay: Immunofluorescence staining of nuclear translocation of NF-κB subunits in DCs; conditions: curdlan-stimulated DCs; 75 µM z-VRPR-FMK; data not shown
Experimental: as §1

Malt1 [3] = assay: Quantitative real-time PCR for cytokine mRNAs in stimulated DCs; conditions: curdlan-stimulated DCs; 75 µM z-VRPR-FMK
Experimental: (§2) Cells, stimulation, inhibition and RNA interference. This study was performed in accordance with the ethical guidelines of the Academic Medical Center. Immature DCs (iDC, day 6 and 7) were generated as described previously. In short, human blood monocytes were isolated from buffy coats by a Ficoll and a Percoll gradient and or CD14 selection by magnetic beads. Monocytes were differentiated into immature DCs in the presence of IL-4 and GM-CSFAt day 6 the phenotype of the cultured DCs was confirmed by flow cytometric analysis. 100.000 DCs were stimulated with 10 µg/ml curdlan (Sigma), heat-killed Candida spp. (multiplicity of infection (MOI) 10) and 10 ng/ml LPS from Salmonella typhosa (Sigma) in 100-150 µl medium. Dectin-2 triggering was induced by pre-incubating DCs for 2 h at room temperature with 5 µg/ml anti-dectin-2 (MAB3114; R&D Systems), followed by cross-linking on goat-anti-mouse IgG (115-006-0710; Jackson)-coated culture plates. Cells were pre-incubated with blocking antibodies or inhibitor for 2 h with 20 µg/ml anti-dectin-1 (MAB1859; R&D Systems), 20 µg/ml anti-dectin-2 (MAB3114; R&D Systems) or 75 µM z-VRPR-FMK (Malt1 inhibitor [22]; Alexis). DCs were transfected with 25 nM siRNA (SEQ ID NO:5-8) using transfection reagens DF4 (Dharmacon), and used for experiments 72 h after transfection. 'SMARTpool' siRNAs used were: Syk (M-003176-03), CARD9 (M-004400-01), Bcl10 (M-004381-02), Malt1 (M-005936-02), c-Rel (M-004768-01) and non-targeting siRNA (D-001206-13) as a control (Dharmacon). […] PCR amplification was performed with the SYBR green method in an ABI 7900HT sequence detection system (Applied Biosystems).Silencing of expression was verified by real-time PCR and flow cytometry (not shown).
Quantitative real-time PCR. mRNA isolation, cDNA synthesis and PCR amplification with the SYBR green method in an ABI 7500 Fast PCR detection system (Applied Biosystems) were performed as described. Standard conditions according to manufacturer's instructions were used. Specific primers were designed using Primer Express 2.0 (Applied Biosystems; Supplementary Table 1). The Ct value is defined as the number of PCR cycles where the fluorescence signal exceeds the detection threshold value. For each sample, the normalized amount of target mRNA was calculated from the obtained Ct values for both target and GAPDH mRNA with Nt = 2^Ct(GAPDH)-Ct(target) The relative mRNA expression was obtained by setting Nt in curdlan-or LPS-stimulated samples at 1 within one experiment and for each donor.

Malt1 [4] = assay: Cytokine production by ELISA in supernatants of stimulated DCs; conditions: 75 µM z-VRPR-FMK
Experimental: as §2
Cytokine production. Cell culture supernatants were harvested after 28 h of stimulation and concentrations of IL-1β, IL-23, IL-6 (Invitrogen) and IL-12p70 (eBioscience) were determined by ELISA.

Malt1 [5] = assay: Th17 polarization assay (primed DCs co-cultured with memory CD4+ T cells); conditions: DCs pre-incubated with z-VRPR-FMK
Experimental: Th17 polarization assay. Memory CD4^+ T cells were isolated as described previously. Human PBMC were isolated from heparinized human peripheral blood by density gradient centrifugation on Lymphoprep (Nycomed), and PBMC were subsequently seperated in monocytes and PBL by density gradient centrifugation on Percoll (Pharmacia). Memory CD4^+ T cells were isolated with CD45R0^+-PE (Dakopatts) and anti-PE-beads (MACS). iDCs were preincubated for 2 h with inhibitors, activated for 16 h with curdlan or heat-killed Candida spp. and subsequently co-cultured with memory CD4^+ T cells as described (20,000 T cells/2000 DCs in the presence of 10 pg/ml Staphylococcus aureus enterotoxin B (Sigma). After 5 days of co-culture, supernatants were harvested and analyzed for IL-17 production by ELISA (Biosource). Cells were further cultured in the presence of 10 U/ml IL-2 (Chiron) and resting cells were restimulated after 12 days with 100 ng/ml PMA (Sigma) and 1 µg/ml ionomycin (Sigma) for 6 h, the last 5 h in the presence of 10 µg/ml brefeldin A (Sigma), and analyzed for intracellular cytokine expression by staining with biotinylated mouse anti-IL-17 (ebio64DE; eBioscience), followed by incubation with streptavidin-PE (BD Pharmingen) and FITC-conjugated mouse anti-IFN-γ (25723.11; BD).

[6] = more strongly than dectin-1 inhibition
[7] = DCs after C. albicans stimulation
[8] = DCs stimulated with C. albicans strain CBS8781 and CBS2712
[9] = DCs stimulated with C. lusitaniae and C. nivariensis

z-Valine-Arginine-Proline-DL-Arginine-FMK [z-VRPR-FMK]
activation of c-Rel (Malt1 [1]): completely abolished | activation of the other NF-κB subunits (Malt1 [1]): without affecting | nuclear translocation of c-Rel (Malt1 [2]): specifically interferes | IL-1β mRNA levels (Malt1 [3]): markedly reduced | IL-6 mRNA production (Malt1 [3]): slightly enhanced | IL-12p35 mRNA production (Malt1 [3]): slightly enhanced | IL-12p40 mRNA production (Malt1 [3]): neither dependent on Malt1 expression nor activation | IL-23p19 mRNA levels (Malt1 [3]): markedly reduced | C. albicans CBS2712-induced IL-1β expression (Malt1 [4]; [6]): decreased | C. albicans CBS2712-induced IL-23 expression (Malt1 [4]; [6]): decreased | IL-12p70 production (Malt1 [4]; [7]): unaffected | expression of IL-6 (Malt1 [4]; [7]): slightly upregulated | expression of IL-1β: requirement for Malt1 activation (Malt1 [4]; [8]): required | expression of IL-23: requirement for Malt1 activation (Malt1 [4]; [8]): required | IL-1β production (Malt1 [4]; [9]): largely dependent on Malt1 protease activity | IL-6 expression (Malt1 [4]; [9]): slightly enhanced | IL-12p70 (Malt1 [4]; [9]): unaffected | IL-23 production (Malt1 [4]; [9]): largely dependent on Malt1 protease activity | IL-1β protein expression (Malt1 [4]; curdlan-stimulated DCs, 28 h): severely reduced | IL-6 expression (Malt1 [4]; curdlan-stimulated DCs, 28 h): only slightly enhancing | IL-12p70 expression (Malt1 [4]; curdlan-stimulated DCs, 28 h): without affecting | IL-23 protein expression (Malt1 [4]; curdlan-stimulated DCs, 28 h): severely reduced | ability of DCs primed by the different Candida spp. to promote IL-17 expression in CD4+ T cells (Malt1 [5]; C. albicans CBS8781, CBS2712, C. lusitaniae, C. nivariensis, intracellular IL-17 day 12): completely blocked | capacity of curdlan-primed DCs to induce IL-17 expression in CD4+ T cells (Malt1 [5]; IL-17 ELISA day 5, intracellular IL-17 day 12): markedly reduced
